Consider 7 compounds from US11117907B2, “Curcuminoid-inspired synthetic compounds as anti-tumor agents” (University of North Florida Board of Trustees, priority 2017, dated 2021).

Like-named read-outs stand apart in the source and are kept apart here.

As a reminder, the EC50 is the concentration giving half of the maximal effect.

Experiment [1] has as its system Various cancer cell lines. In words: Cancer cell line growth at 1×10^−5 M curcuminoid. The experiment is classed as cell-based. As to conditions: all cancer cell lines. How it is done: Various cancer cell lines were seeded into 384-well culture plates at 2×10^3 cell/well and incubated at 5% CO2, 37° C. The culture media was replaced with 1×10^−5 M of curcuminoid; 1,7-bis(2,3,6-trimethoxyphenyl)hepta-1,4,6-triene-3,5-dione, 7-bis(3-benzothiophene)hepta-1,4,6-triene-3,5-dione, or D-793176. The cell line growth was measured.

The test system of a further experiment is PBMCs. Put plainly: Apoptosis (annexin-V/PI flow cytometry), healthy donor PBMCs. The experiment is classed as cell-based, human. How it is done: (§1) Apoptotic cell death in multiple myeloma (MM) cancer cell lines (RPMI-8226, KMS-11, MM1.S) as well as peripheral blood mononuclear cells (PBMCs) from healthy donors that were exposed to various concentrations of (A) CUR-analog 1 (Indole-4 CUR—BF2) and (B) CUR-analog 2 (Indole-5 CUR) or (C) the FDA-approved Bcl-2 inhibitor (venetoclax, used for comparison) was assessed.
(§2) Cell lines and PBCMs (peripheral blood mononuclear cells from healthy donors as non-cancer CONTROL) were seeded in quadruplicate (technical replicates). CellTiter-Glo® 2.0 reagent equal to the volume of cell culture medium present in each well was added and the plate was left to incubate at room temperature for 10 minutes to stabilize the luminescent signal. Luminescent signal/intensity from the 384-well plate was read on a plate reader. Cells/cell lines used: BCWM.1 (Waldenstrom macroglobulinemia cell line, WM); RPMI-8266 (Multiple myeloma cell line, MM); RS4; 11 (Acute lymphoblastic leukemia, ALL). For Apoptosis study cells were treated with the indicated agents and concentrations (FIG. 74) for 24 h and stained with annexin-V and propidium iodide (PI), followed by flow cytometry analysis.

For the next experiment, the system named is RPMI-8226. Put plainly: Apoptosis (annexin-V/PI flow cytometry), RPMI-8226. The experiment is classed as cell-based, human. As to conditions: 2.5 uM, 24 h. How it is done: as §1, §2
A further experiment deals with KMS-11. In words: Apoptosis (annexin-V/PI flow cytometry), KMS-11. It counts as cell-based, human. How it is done:
as §1, §2

Experiment [2] deals with MM cell lines (MM1.S, KMS11, RPMI-8226). Put plainly: Cell proliferation and viability in multiple myeloma cell lines (CellTiter Glo 2.0, 72 h). It counts as cell-based, human. As to conditions: read-out: median IC50 concentration in MM cell lines. How it is done: Cell proliferation and viability were determined in multiple myeloma (MM) cancer cell lines (RPMI-8226, KMS-11, MM1.S) as well as in peripheral blood mononuclear cells (PBMCs) from healthy donors that were exposed to various concentrations of (A) CUR-analog 1 (3-BF2) and (B) CUR-analog 2 (CUR 2) for 72 hours using the CellTiter Glo 2.0 assay.
as §2
For orientation: In ATP-based viability assays light output follows the ATP content of the culture.

The next experiment relates to MM1.S. In words: Apoptosis (annexin-V/PI flow cytometry), MM1.S. It counts as cell-based, human. How it is done: as §1, §2
(In general: In flow cytometry, cells or beads pass a laser one at a time.)

For experiment [3], the system named is PBMC. Put plainly: Cell viability assay (CellTiter-Glo 2.0), PBMC from healthy donors. It counts as cell-based. As to conditions: Homo sapiens, Table 7, run number 2, 72 h. How it is done:
Peripheral blood mononuclear cells (PBMCs) were collected from healthy, i.e. non-cancerous, donors (CONTROL).
(§3) RPMI-8266 (Multiple myeloma cell line, MM) and PBCMs cells were seeded into 384-well culture plates at 2×10^3 cell/well in quadruplicate, and incubated at 5% CO2, 37° C. The culture media was replaced with compounds (ranges from 0-10,000 nM) and incubated for 72 h. Bortezomib was spiked in control. […] CellTiter-Glo® 2.0 reagent was added at equal volume to the cell culture medium present in each well and the plate was left to incubate at room temperature for 10 minutes to stabilize the luminescent signal.
Cell lines and PBCMs (peripheral blood mononuclear cells from healthy donors as non-cancer CONTROL) were seeded in quadruplicate (technical replicates). CellTiter-Glo® 2.0 reagent equal to the volume of cell culture medium present in each well was added and the plate was left to incubate at room temperature for 10 min to stabilize the luminescent signal. Luminescent signal/intensity from the 384-well plate was read on a plate reader. […]
Cell lines and PBCMs (peripheral blood mononuclear cells from healthy donors as non-cancer CONTROL) were seeded in quadruplicate (technical replicates). […] Luminescent signal/intensity from the 384-well plate was read on a plate reader. […]

Experiment [4] deals with MM cell lines (MM1.S, KMS11, RPMI-8226). The settings on record: cited from earlier work.
The subject of experiment [5] is RPMI8226. As to conditions: control; typically; read-out: EC50 in RPMI8266, typical value; cited from earlier work.
In experiment [6] the test system is RPMI8226. In words: Cell viability assay to determine EC50 (CellTiter-Glo 2.0), RPMI8226. It counts as cell-based. The settings on record: Homo sapiens, RPMI-8226; Table 7, run number 2; 72 h. How it is done:
as §3
(§4) Cell lines and PBCMs (peripheral blood mononuclear cells from healthy donors as non-cancer CONTROL) were seeded in quadruplicate (technical replicates). CellTiter-Glo® 2.0 reagent equal to the volume of cell culture medium present in each well was added and the plate was left to incubate at room temperature for 10 min to stabilize the luminescent signal. Luminescent signal/intensity from the 384-well plate was read on a plate reader. Cells/cell lines used: BCWM.1 (Waldenstrom macroglobulinemia cell line, WM); RPMI-8266 (Multiple myeloma cell line, MM); RS4; 11 (Acute lymphoblastic leukemia, ALL)* reported to be dependent on Bcl-2 protein.

Experiment [7] relates to PBMC. The settings on record: comparison value; read-out: IC50 of PBMCs; cited from earlier work.
For another experiment, the system named is MM cell lines. In words: Apoptosis (annexin-V/PI flow cytometry), median over MM cell lines. The experiment is classed as cell-based, human. As to conditions: 1.25, 2.5, 5 uM and 10 uM. How it is done:
Apoptotic cell death in multiple myeloma (MM) cancer cell lines (RPMI-8226, KMS-11, MM1.S) as well as peripheral blood mononuclear cells (PBMCs) from healthy donors that were exposed to various concentrations of (A) CUR-analog 1 (Indole-4 CUR—BF2) and (B) CUR-analog 2 (Indole-5 CUR) or (C) the FDA-approved Bcl-2 inhibitor (venetoclax, used for comparison) was assessed. Bar graphs show % of apoptotic cells (annexin-V+PI positive cells) normalized to basal apoptosis observed in control (DMSO-treated) cells.
In contrast, in KMS11 and MM1.S cells, notable apoptosis (54% and 15%, respectively) was seen only at a 10 uM concentration.
as §4, with “10 minutes” for “10 min”, “leukemia, ALL). […]” for “leukemia, ALL)* reported to be dependent on Bcl-2 protein.”

The subject of another experiment is PC3. Put plainly: In vitro cell viability bioassay, MTT, PC3. The experiment is classed as cell-based. The settings on record: Homo sapiens, PC-3; MTT assay; read-out: Prostate Cancer IC50 (μM) PC3. How it is done: (§5) To evaluate the cell growth inhibitory and apoptosis inducing effects of the fluorinated curcuminoids and their BF2 adducts, in-vitro bioassay tests were performed on […] different cancer cell lines namely: MOLT-4 (human leukemia suspension cancer cell line), PC3 and LNCap (human […] prostate cancer cell lines respectively), A549 (lung cancer), and MDA231 (breast cancer), and the results are sketched in Table 3.
(§6) The cell viability/anti-proliferative activity of the curcuminoids against PC3 (human androgen-insensitive prostate cancer cell line), LNCap (human-androgen sensitive prostate cancer cell line), A549 (lung cancer), and MDA231 (breast cancer) were determined by means of 3-(4,5-dimethyl-2-thiazolyl)-2,5-diphenyl-2H-tetrazolium bromide (MTT) assay (the tetrazolium salt was a commercial sample). (R. N. Khaybullin, et al., Molecules, 2014, 19, 18676-18689). The ability of the curcuminoids to affect proliferations of suspension cell lines (MOLT-4) was tested by the CellTiter-Glo® Luminescent Cell Viability Assay (purchased from Promega Madison, Wis., USA) to determine the number of viable cells in culture based on quantitation of the ATP present. The IC50 values were obtained from fitting data with GraphPad software to determine the growth inhibition in the presence of test compounds. (R. N. Khaybullin, et al., Molecules, 2014, 19, 18676-18689).
(In general: Tetrazolium dyes change colour on reduction, which living cells bring about.)

In the next experiment the test system is A549. In words: In vitro cell viability bioassay, MTT, A549. It counts as cell-based. The settings on record: Homo sapiens, MTT assay, read-out: Lung Cancer IC50 (μM) A549. How it is done:
as §5, §6

Another experiment concerns MDA231. Put plainly: In vitro cell viability bioassay, MTT, MDA231. As to conditions: Homo sapiens, MDA-MB-231; MTT assay; read-out: Breast Cancer IC50 (μM) MDA231. The experiment is classed as cell-based, human. How it is done: as §5, §6
A further experiment has as its system LNCap. In words: In vitro cell viability bioassay, MTT, LNCap. It counts as cell-based. The settings on record: Homo sapiens, MTT assay, read-out: Prostate Cancer IC50 (μM) LNCap. How it is done: as §5, §6
The subject of the next experiment is MOLT-4. In words: In vitro cell viability bioassay, CellTiter-Glo, MOLT-4. The experiment is classed as cell-based, human. The settings on record: Homo sapiens, MOLT-4; CellTiter-Glo Luminescent Cell Viability Assay; read-out: Leukemia IC50 (μM) MOLT-4. How it is done: as §5, §6

Regarding “1,7-bis(2,3,6-trimethoxyphenyl)hepta-1,4,6-triene-3,5-dione”, the “cell line growth relative to non-treated cells” value in experiment [1] is recorded as no more than 50%.
On to `F[B-]1(F)OC(/C=C/c2cccc3[nH]ccc23)=CC(/C=C/c2cccc3[nH]ccc23)=[O+]1` [3-BF2, Indole-4-Curcuminoid-BF2 adduct], for which, in the experiment with PBMCs ([…] and 2.5 uM, 24 h), the “apoptosis, healthy donor PBMCs” value was 23-28%. Also, the “apoptosis, RPMI-8226” value with RPMI-8226 is listed as 60%. Further, the “apoptosis, KMS-11” value in the experiment with KMS-11 (2.5 uM, 24 h) is 79%. In addition, the IC50 in experiment [2] worked out at 2.1 µM. In the experiment with MM1.S (2.5 uM, 24 h), the “apoptosis, MM1.S” value is listed as 47%.
Take `CC(C)C[C@H](NC(=O)[C@H](Cc1ccccc1)NC(=O)c1cnccn1)B(O)O` [Bortezomib]: the EC50 with PBMC [3] was 0.0605 µM; in the experiment with RPMI8226 [5], 0.01 to 0.016 µM; in the experiment on RPMI8226 [6] it was 0.0106 µM. For the same compound, in experiment [4] (MM cells versus PBMCs), the “in vitro tumor-specificity profile” value is listed as 2-3 fold. Moreover, the IC50 was roughly 0.002 µM in experiment [4] (comparison value, read-out: IC50 in MM cells) and 0.004 to 0.006 µM with PBMC [7].
Regarding `CC1(C)CCC(CN2CCN(c3ccc(C(=O)NS(=O)(=O)c4ccc(NCC5CCOCC5)c([N+](=O)[O-])c4)c(Oc4cnc5[nH]ccc5c4)c3)CC2)=C(c2ccc(Cl)cc2)C1` [Venetoclax, reference compound], in the experiment on PBMCs (1.25, 2.5, 5 uM and 10 uM), the “cell death in healthy donor PBMCs” value is recorded as roughly 10%. Further, in the experiment with MM cell lines, the “median apoptosis, MM cell lines” value was 15%.
As to `COc1cc(/C=C/C(=O)CC(=O)/C=C/c2ccc(O)c(OC)c2)ccc1O` [compound 1 of FIG. 2, curcumin], the IC50 with PC3 turned out to be 9 µM; in the experiment on A549 it was 18 µM; in the experiment on MDA231 it was 11.5 µM; in the experiment with LNCap it was 9.7 µM; in the experiment on MOLT-4 it was 19 µM.
Turning to `O=C(/C=C/c1ccc(F)cc1)C(F)(F)C(=O)/C=C/c1ccc(F)cc1` [compound 12], the IC50 in the experiment on MDA231 turned out to be 6.7 µM; in the experiment with LNCap, 29.2 µM; with MOLT-4, 1.32 µM.
Take “(1E,4E,6E)-5-Hydroxy-1,7-bis(indole-5)hepta-1,4,6-trien-3-one [compound 2 of Example 5]”: the “apoptosis, RPMI-8226” value with RPMI-8226 was 65%. Besides, the “apoptosis, KMS11” value with KMS-11 (10 uM) was found to be 54%. Further, the “apoptosis, MM1.S” value in the experiment on MM1.S (10 uM) turned out to be 15%.
